Source: patent publication US20050163855A1, “Method of preparing low-crystallinity oltipraz or amorphous oltipraz” (CJ CORPORATION, priority 2004, published 2005)
Converted amounts (≈) assume the structure as drawn.

Assays:
[1] = cited from earlier work

solubility (physchem; Cremophor EL, organic solvent or mixture): 9.44 mg/mL (≈ 41.7 mM)
solubility (physchem; Cremophor RH40, organic solvent or mixture): 10.7 mg/mL (≈ 47.2 mM)
solubility (physchem; Dimethylisosorbide, organic solvent or mixture): 17.2 mg/mL (≈ 76.2 mM)
solubility (physchem; Labrasol, organic solvent or mixture): 12.6 mg/mL (≈ 55.6 mM)
solubility (physchem; N,N-dimethylformamide, organic solvent or mixture): 31.3 mg/mL (≈ 138 mM)
solubility (physchem; N-methypyrrolidone, organic solvent or mixture): 13.7 mg/mL (≈ 60.3 mM)
solubility (physchem; Polymethylene glycol 200, organic solvent or mixture): 7.99 mg/mL (≈ 35.3 mM)
solubility (physchem; Polymethylene glycol 400, organic solvent or mixture): 10.5 mg/mL (≈ 46.5 mM)
solubility (physchem; Polypropylene glycol, organic solvent or mixture): 0.57 mg/mL (≈ 2.52 mM)
solubility (physchem; Tetraglycol, organic solvent or mixture): 13.6 mg/mL (≈ 59.9 mM)
solubility (physchem; Transcutol, organic solvent or mixture): 10.3 mg/mL (≈ 45.7 mM)
solubility (physchem; acetone, organic solvent or mixture): 4.05 mg/mL (≈ 17.9 mM)
solubility (physchem; acetonitrile, organic solvent or mixture): 2.73 mg/mL (≈ 12.1 mM)
solubility (physchem; chloroform, organic solvent or mixture): 28.6 mg/mL (≈ 126 mM)
solubility (physchem; dimethyl sulfoxide, organic solvent or mixture): 29.1 mg/mL (≈ 129 mM)
solubility (physchem; ethanol, organic solvent or mixture): 0.67 mg/mL (≈ 2.96 mM)
solubility (physchem; methanol, organic solvent or mixture): 0.5 mg/mL (≈ 2.21 mM)
solubility (physchem; methylene chloride, organic solvent or mixture): 7.6 mg/mL (≈ 33.6 mM)
Structure (SMILES): Cc1c(-c2cnccn2)ssc1=S [oltipraz]
water solubility [1]: ≤ 0.001 mg/mL
